For 13 compounds, IC50 results are on record in patent publication US11739098B2 (BRISTOL-MYERS SQUIBB COMPANY, priority 2017, dated 2023).

For orientation: IC50 means the midpoint of a concentration-inhibition curve. A low value points to greater potency in that assay.

The structures appear in SMILES notation. Bounds are passed on as bounds.

Holding throughout (type): cell-based
The target in one experiment is T1, human TLR9 (Homo sapiens, UniProt Q9NR96).
T1 construct: host or cells: HEK-Blue cells (HEK293-derived reporter line)
T1 sequence (Q9NR96 26-1032): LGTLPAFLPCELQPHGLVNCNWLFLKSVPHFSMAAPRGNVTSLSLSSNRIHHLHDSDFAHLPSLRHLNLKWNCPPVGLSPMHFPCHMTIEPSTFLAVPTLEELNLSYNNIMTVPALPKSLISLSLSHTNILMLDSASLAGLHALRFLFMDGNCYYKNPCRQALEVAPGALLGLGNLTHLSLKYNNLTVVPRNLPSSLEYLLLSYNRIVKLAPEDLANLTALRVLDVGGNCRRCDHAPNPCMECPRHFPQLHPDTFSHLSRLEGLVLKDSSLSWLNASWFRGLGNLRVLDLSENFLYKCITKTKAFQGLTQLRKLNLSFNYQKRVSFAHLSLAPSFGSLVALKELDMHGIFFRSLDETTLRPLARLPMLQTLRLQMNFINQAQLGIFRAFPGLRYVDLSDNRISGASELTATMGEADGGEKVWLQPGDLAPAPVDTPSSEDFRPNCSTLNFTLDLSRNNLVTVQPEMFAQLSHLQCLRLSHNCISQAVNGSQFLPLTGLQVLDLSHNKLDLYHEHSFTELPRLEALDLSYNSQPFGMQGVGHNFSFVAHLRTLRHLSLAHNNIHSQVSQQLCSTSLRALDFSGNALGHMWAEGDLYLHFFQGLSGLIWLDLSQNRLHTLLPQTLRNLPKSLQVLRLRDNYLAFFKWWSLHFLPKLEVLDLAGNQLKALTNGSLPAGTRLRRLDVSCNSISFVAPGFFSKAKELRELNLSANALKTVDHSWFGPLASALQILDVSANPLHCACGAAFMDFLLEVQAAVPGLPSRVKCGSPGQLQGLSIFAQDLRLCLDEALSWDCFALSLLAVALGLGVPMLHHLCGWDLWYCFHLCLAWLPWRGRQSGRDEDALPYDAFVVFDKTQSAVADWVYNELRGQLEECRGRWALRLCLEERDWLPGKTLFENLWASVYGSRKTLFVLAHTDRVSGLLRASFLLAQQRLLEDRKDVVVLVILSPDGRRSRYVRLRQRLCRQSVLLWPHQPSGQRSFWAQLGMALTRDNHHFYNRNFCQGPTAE
Nature of the experiment: TLR9 inhibition reporter assay (HEK-Blue cells, SEAP reporter, ODN2006 stimulation). Particulars: HEK-Blue cells overexpressing human TLR9, SEAP reporter, ODN2006 5 nM. A digest of the protocol:
(§1)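 HEK-Blue cells overexpressing human TLR7, TLR8 or TLR9 (NF-κB/AP-1-driven SEAP) pre-treated 30 min at room temperature with compound (0.05 nM–50 μM), then stimulated with gardiquimod 7.5 μM (TLR7), R848 15.9 μM (TLR8) or ODN2006 5 nM (TLR9). SEAP read colorimetrically after 22 h at 37 °C; % inhibition calculated.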
Background: Reporter assays use an easily measured gene product as a stand-in for the process of interest.

In the next experiment the target is T2, human TLR7 (Homo sapiens, UniProt Q9NYK1).
T2 construct: host or cells: HEK-Blue cells (HEK293-derived reporter line)
T2 sequence (Q9NYK1 27-1049): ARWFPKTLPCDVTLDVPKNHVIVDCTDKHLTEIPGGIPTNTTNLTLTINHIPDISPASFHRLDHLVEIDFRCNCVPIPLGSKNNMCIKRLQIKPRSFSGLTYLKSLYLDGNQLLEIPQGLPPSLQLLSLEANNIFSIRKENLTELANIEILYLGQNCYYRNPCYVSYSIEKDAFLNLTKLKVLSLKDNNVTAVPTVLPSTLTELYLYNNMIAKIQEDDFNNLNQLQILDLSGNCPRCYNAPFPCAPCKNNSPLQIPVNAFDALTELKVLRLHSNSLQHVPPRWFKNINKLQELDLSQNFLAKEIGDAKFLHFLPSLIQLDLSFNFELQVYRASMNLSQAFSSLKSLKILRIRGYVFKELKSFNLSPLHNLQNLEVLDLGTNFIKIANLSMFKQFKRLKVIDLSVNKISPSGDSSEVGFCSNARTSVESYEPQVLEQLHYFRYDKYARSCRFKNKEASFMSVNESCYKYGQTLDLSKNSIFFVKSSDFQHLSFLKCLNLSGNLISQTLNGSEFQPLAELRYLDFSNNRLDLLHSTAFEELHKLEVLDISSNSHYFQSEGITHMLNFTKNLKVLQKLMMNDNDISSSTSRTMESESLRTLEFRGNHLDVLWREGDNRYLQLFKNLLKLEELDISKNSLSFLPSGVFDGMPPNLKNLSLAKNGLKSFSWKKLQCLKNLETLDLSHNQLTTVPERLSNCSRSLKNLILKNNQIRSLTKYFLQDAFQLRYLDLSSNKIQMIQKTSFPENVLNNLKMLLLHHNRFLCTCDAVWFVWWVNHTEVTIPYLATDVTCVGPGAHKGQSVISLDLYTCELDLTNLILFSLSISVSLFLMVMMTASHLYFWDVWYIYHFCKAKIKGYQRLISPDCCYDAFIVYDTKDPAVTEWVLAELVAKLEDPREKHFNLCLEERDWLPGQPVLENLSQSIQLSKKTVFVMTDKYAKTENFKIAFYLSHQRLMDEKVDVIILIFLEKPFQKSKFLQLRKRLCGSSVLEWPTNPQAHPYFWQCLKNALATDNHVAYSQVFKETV
Briefly: TLR7 inhibition reporter assay (HEK-Blue cells, SEAP reporter, gardiquimod stimulation). Particulars: HEK-Blue cells overexpressing human TLR7, SEAP reporter, gardiquimod 7.5 μM. The procedure, abridged:
as §1

A further experiment has as its target T3, human TLR8 (Homo sapiens, UniProt Q9NR97).
T3 construct: host or cells: HEK-Blue cells (HEK293-derived reporter line)
T3 sequence (Q9NR97 27-1041): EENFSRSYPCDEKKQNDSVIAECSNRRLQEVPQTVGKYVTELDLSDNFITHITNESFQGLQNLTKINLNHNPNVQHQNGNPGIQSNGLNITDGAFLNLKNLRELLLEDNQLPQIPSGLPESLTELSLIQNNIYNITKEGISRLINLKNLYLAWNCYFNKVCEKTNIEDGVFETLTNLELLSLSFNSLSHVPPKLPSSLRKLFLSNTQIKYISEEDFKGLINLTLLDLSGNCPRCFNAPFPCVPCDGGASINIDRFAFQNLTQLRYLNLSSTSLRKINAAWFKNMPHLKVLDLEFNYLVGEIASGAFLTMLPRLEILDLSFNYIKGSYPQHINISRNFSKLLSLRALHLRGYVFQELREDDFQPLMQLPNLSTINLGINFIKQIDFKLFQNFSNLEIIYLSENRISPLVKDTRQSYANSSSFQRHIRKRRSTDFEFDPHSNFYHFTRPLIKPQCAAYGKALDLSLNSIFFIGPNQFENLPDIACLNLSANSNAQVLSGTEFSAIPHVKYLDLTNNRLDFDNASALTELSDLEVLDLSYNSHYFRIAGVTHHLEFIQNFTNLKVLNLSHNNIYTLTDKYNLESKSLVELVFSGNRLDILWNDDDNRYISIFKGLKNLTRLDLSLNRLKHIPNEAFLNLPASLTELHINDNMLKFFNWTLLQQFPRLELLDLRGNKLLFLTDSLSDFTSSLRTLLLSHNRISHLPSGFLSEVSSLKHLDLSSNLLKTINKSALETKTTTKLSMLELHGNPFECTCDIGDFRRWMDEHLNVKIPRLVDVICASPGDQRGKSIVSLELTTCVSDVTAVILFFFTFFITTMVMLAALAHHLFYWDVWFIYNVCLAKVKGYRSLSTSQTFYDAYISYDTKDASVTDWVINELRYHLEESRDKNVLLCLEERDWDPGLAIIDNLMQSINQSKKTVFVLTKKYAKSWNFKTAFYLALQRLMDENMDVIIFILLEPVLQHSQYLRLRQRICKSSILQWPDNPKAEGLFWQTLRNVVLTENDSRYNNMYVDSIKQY
Nature of the experiment: TLR8 inhibition reporter assay (HEK-Blue cells, SEAP reporter, R848 stimulation). Particulars: HEK-Blue cells overexpressing human TLR8, SEAP reporter, R848 15.9 μM. The procedure, abridged:
as §1

`Cc1c(-c2ccnc3[nH]ccc23)[nH]c2ccc(C3CCN(C4CCN(C(C)C)CC4)CC3)cc12` [Example 813, 4-(5-(1′-isopropyl-[1,4′-bipiperidin]-4-yl)-3-methyl-1H-indol-2-yl)-1H-pyrrolo[2,3-b]pyridine]: the IC50 against human TLR9, against human TLR7 and against human TLR8 was less than 100 nM in each case.
On to `Cc1cc(-c2[nH]c3ccc(C4CCN(CC(C)(C)O)CC4)cc3c2C(C)C)cc2ncnn12` [Example 756, 1-(4-(3-isopropyl-2-(5-methyl-[1,2,4]triazolo[1,5-a]pyridin-7-yl)-1H-indol-5-yl)piperidin-1-yl)-2-methylpropan-2-ol], for which the results for the IC50 on human TLR9, against human TLR7 and at human TLR8 were 1000 to 50000 nM, less than 100 nM and less than 100 nM, respectively.
Consider `CCc1c(-c2cccc3c2cnn3C)[nH]c2ccc(C3CCN(C(=O)CN(C)C)CC3)cc12` [Example 520, 2-(dimethylamino)-1-(4-(3-ethyl-2-(1-methyl-1H-indazol-4-yl)-1H-indol-5-yl)piperidin-1-yl)ethan-1-one], for which the IC50 at human TLR9 was 1000 to 50000 nM; against human TLR7, greater than 50000 nM; at human TLR8, greater than 50000 nM.
As to `Cc1ccnc2[nH]cc(-c3[nH]c4ccc(C5CCNCC5)cc4c3C(C)C)c12` [Example 36, 3-(3-isopropyl-5-(piperidin-4-yl)-1H-indol-2-yl)-4-methyl-1H-pyrrolo[2,3-b]pyridine], the IC50 was 100 to 1000 nM against human TLR9, less than 100 nM on human TLR7 and less than 100 nM on human TLR8.
Consider `Cc1cc(-c2[nH]c3ccc(C4CCNCC4)cc3c2C(C)C)c(C)n2nnnc12` [Example 74, 6-(3-isopropyl-5-(piperidin-4-yl)-1H-indol-2-yl)-5,8-dimethyltetrazolo[1,5-a]pyridine], for which the results for the IC50 against human TLR9, on human TLR7 and at human TLR8 were 1000 to 50000 nM, less than 100 nM and less than 100 nM, respectively.
Take `CC(C)c1c(-c2ccnc3[nH]ncc23)[nH]c2ccc(C3CCN(C(=O)Cc4c[nH]cn4)CC3)cc12` [Example 612, 2-(1H-imidazol-4-yl)-1-(4-(3-isopropyl-2-(1H-pyrazolo[3,4-b]pyridin-4-yl)-1H-indol-5-yl)piperidin-1-yl)ethan-1-one]: the figures for the IC50 at human TLR9, on human TLR7 and against human TLR8 were 1000 to 50000 nM, less than 100 nM and less than 100 nM, respectively.
On to `OCc1c(-c2ccnc3[nH]ncc23)[nH]c2ccc(C3CCNCC3)cc12` [Example 176, (5-(piperidin-4-yl)-2-(1H-pyrazolo[3,4-b]pyridin-4-yl)-1H-indol-3-yl)methanol], for which the IC50 against human TLR9, against human TLR7 and against human TLR8 was 1000 to 50000 nM throughout.
Take `CC(C)c1c(-c2ccc3oc(=O)[nH]c3c2)[nH]c2ccc(C3CCNCC3)cc12` [Example 11, 5-(3-isopropyl-5-(piperidin-4-yl)-1H-indol-2-yl)benzo[d]oxazol-2(3H)-one]: the IC50 on human TLR9 was 100 to 1000 nM; against human TLR7, less than 100 nM; on human TLR8 it was 100 to 1000 nM.
As to `CCc1c(-c2ncnc3[nH]ccc23)[nH]c2ccc(C3CCNCC3)cc12` [Example 206, 4-(3-ethyl-5-(piperidin-4-yl)-1H-indol-2-yl)-7H-pyrrolo[2,3-d] pyrimidine], the results for the IC50 on human TLR9, against human TLR7 and on human TLR8 were 1000 to 50000 nM, 100 to 1000 nM and less than 100 nM, respectively.
Turning to `Cc1cc(-c2[nH]c3ccc(C4CCNCC4)cc3c2C(C)C)cc2c(O)c(C#N)cnc12` [Example 107, 4-hydroxy-6-(3-isopropyl-5-(piperidin-4-yl)-1H-indol-2-yl)-8-methylquinoline-3-carbonitrile], the IC50 is 1000 to 50000 nM on human TLR9, 1000 to 50000 nM against human TLR7 and greater than 3130 nM against human TLR8.
In the case of `Fc1cc(-c2[nH]c3ccc(C4CCNCC4)cc3c2CC(F)F)cn2ccnc12` [Example 131, 6-(3-(2,2-difluoroethyl)-5-(piperidin-4-yl)-1H-indol-2-yl)-8-fluoroimidazo[1,2-a] pyridine], the IC50 was 100 to 1000 nM against human TLR9, less than 100 nM on human TLR7 and 100 to 1000 nM against human TLR8.
For the compound `Cc1cc(-c2[nH]c3ccc(C4CCN(C(=O)CCN5CCCCC5)CC4)cc3c2C(C)C)cn2nnnc12` [Example 629, 1-(4-(3-isopropyl-2-(8-methyltetrazolo[1,5-a]pyridin-6-yl)-1H-indol-5-yl)piperidin-1-yl)-3-(piperidin-1-yl)propan-1-one], the IC50 on human TLR9 is 1000 to 50000 nM; at human TLR7 it was less than 100 nM; at human TLR8, less than 100 nM.
Regarding `CC(C)c1c(-c2ccn3cnnc3c2)[nH]c2ccc(C3CCN(C4CCOCC4)CC3)cc12` [Example 697, 7-(3-isopropyl-5-(1-(tetrahydro-2H-pyran-4-yl)piperidin-4-yl)-1H-indol-2-yl)-[1,2,4]triazolo[4,3-a]pyridine], the IC50 at human TLR9, against human TLR7 and at human TLR8 was 100 to 1000 nM each time.
